# Assay results taken from doi:10.1101/2024.08.16.608276v1, “The kinetoplastid kinetochore protein KKT23 acetyltransferase is a structural homolog of GCN5 that acetylates the histone H2A C-terminal tail” (biorxiv, 2024).
# Molecular target: T1, KKT23^2–348 (Trypanosoma brucei, UniProt Q38AU6)
# T1 construct: gene Tb10.70.0180; full-length recombinant protein (residues 2-348), E. coli, His-tag cut by TEV, monomer, calculated 39 kDa; strain printed for the cell lines only
# T1 sequence (Q38AU6 2-348): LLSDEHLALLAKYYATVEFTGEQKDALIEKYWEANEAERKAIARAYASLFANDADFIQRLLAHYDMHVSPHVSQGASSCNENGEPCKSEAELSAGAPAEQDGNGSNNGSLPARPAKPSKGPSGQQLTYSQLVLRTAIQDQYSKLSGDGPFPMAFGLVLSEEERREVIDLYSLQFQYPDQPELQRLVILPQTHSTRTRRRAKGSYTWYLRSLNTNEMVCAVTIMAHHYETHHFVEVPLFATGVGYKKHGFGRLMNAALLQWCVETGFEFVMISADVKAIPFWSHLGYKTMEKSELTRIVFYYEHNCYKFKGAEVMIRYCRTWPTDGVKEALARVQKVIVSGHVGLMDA
# Assay: histone acetyltransferase assay, anti-acetyl-lysine immunoblot and mass spectrometry
# Format: biochemical
# Details: co-substrate reconstituted T. brucei nucleosomes (H2A C-terminal tail); up to 200 uM acetyl-CoA; pH 8.0, 30 C, 1 h
structure (smiles),measurement,value
CC(=O)SCCNC(=O)CCNC(=O)[C@H](O)C(C)(C)COP(=O)(O)OP(=O)(O)OC[C@H]1O[C@@H](n2cnc3c(N)ncnc32)[C@H](O)[C@@H]1OP(=O)(O)O [acetyl coenzyme A],"histone acetyltransferase assay, anti-acetyl-lysine immunoblot and mass spectrom",recombinant KKT23 was incubated with acetyl-CoA and nucleosomes reconstituted using either T. brucei or H. sapiens
